The text below walks through data of US9624209B2, “Substituted phenylureas and phenylamides as vanilloid receptor ligands” (Gruenenthal GmbH, priority 2009, dated 2017).

The target in the assay is T1, vanilloid receptor 1 (VR1/TRPV1 receptor) (Homo sapiens, UniProt Q8NER1).
T1 construct: expressed in transfected cells; host or cells: CHO K1 cells (ECACC), stably transfected
The assay can be described thus: VR1/TRPV1 receptor affinity, capsaicin stimulus (human). Also noted: key to (f) Ki (human being) [nM] Cap: result in words: AG=agonist; pAG=partial agonist; NE=no effect. The assay is classed as cell-based, human being. As to conditions: for (f) Ki (human being) [nM] Cap: inhibition (as a percentage): @ 5 μM; for (f) Ki (human being) [nM] Cap: inhibition (as a percentage) / (f) Ki (human being) [nM] Cap: result in words: Tables 8-12; for Ki: Tables 8-12, read-out: (f) Ki (human being) [nM] Cap.

T1 sequence (Q8NER1 whole entry): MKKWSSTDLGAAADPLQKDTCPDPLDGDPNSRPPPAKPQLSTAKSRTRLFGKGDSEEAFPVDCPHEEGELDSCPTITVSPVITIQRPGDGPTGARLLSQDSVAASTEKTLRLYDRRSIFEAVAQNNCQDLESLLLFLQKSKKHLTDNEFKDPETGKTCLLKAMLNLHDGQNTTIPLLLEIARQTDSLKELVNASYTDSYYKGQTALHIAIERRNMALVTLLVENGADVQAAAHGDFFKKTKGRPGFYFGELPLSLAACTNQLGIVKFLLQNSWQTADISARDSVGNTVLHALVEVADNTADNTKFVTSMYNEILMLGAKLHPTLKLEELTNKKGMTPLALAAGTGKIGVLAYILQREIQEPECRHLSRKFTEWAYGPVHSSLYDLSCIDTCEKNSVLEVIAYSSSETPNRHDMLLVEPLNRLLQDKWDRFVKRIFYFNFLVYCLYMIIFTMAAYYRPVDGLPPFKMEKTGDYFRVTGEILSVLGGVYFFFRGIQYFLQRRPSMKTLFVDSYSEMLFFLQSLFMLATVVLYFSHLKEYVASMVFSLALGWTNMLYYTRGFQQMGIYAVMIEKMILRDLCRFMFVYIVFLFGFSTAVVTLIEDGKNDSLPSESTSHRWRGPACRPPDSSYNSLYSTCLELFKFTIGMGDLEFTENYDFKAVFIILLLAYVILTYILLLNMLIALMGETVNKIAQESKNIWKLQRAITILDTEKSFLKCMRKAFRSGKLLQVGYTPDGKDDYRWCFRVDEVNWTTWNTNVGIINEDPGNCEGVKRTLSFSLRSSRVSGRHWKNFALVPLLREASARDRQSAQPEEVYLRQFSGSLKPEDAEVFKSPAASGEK

Turning to “1-[[2-(3,4-Difluoro-phenyl)-5-(trifluoromethyl)-2H-pyrazol-3-yl]-methyl]-3-[3-fluoro-4-(2-hydroxy-ethoxy-methyl)-phenyl]-urea [Example A132]”, the “(f) Ki (human being) [nM] Cap: inhibition (as a percentage)” value (“(f) Ki … inhibition (as a percentage)” for short) was 48% @ 5 μM.
“1-[[5-tert-Butyl-2-(3-chlorophenyl)-2H-pyrazol-3-yl]-methyl]-3-[3-fluoro-4-(hydroxymethyl)-phenyl]-urea [Example A55]”: the Ki stood at 3 nM.
“1-[[5-tert-Butyl-2-(3-fluorophenyl)-2H-pyrazol-3-yl]-methyl]-3-[3-fluoro-4-(3-hydroxy-azetidin-1-yl)-phenyl]-urea [Example C8]”: the “(f) Ki … inhibition (as a percentage)” value is listed as 53% @ 5 μM.
For “2-Chloro-4-[[[2-(3-chlorophenyl)-5-(trifluoromethyl)-2H-pyrazol-3-yl]-methyl-carbamoyl]amino]-benzoic acid [Example E54]”, the “(f) Ki … inhibition (as a percentage)” value is recorded as 20% @ 5 μM.
For “4-[1-[[2-(3-Chlorophenyl)-5-(trifluoromethyl)-2H-pyrazol-3-yl]-methyl-carbamoyl]-ethyl]-2-fluoro-N-(oxetan-3-yl)-benzamide [Example E19]”, the Ki is 41 nM.
Still for that read-out and setting: with “4-[1-[[2-(3-Chlorophenyl)-5-(trifluoromethyl)-2H-pyrazol-3-yl]-methyl-carbamoyl]-ethyl]-2-fluoro-N-[4-(trifluoromethyl)-phenyl]-benzamide [Example E48]” the figure was 27 nM; with “4-[1-[[2-(3-Chlorophenyl)-5-(trifluoromethyl)-2H-pyrazol-3-yl]-methyl-carbamoyl]-ethyl]-2-fluoro-N-methyl-benzamide [Example E11]”, 11 nM; with “4-[1-[[2-(3-Chlorophenyl)-5-(trifluoromethyl)-2H-pyrazol-3-yl]-methyl-carbamoyl]-ethyl]-2-fluoro-N-thiazol-2-yl-benzamide [Example E52]”, 59 nM.
Still for that read-out and setting: with “4-[1-[[5-tert-Butyl-2-(3-chloro phenyl)-2H-pyrazol-3-yl]-methyl-carbamoyl]-ethyl]-N-(3-fluorophenyl)-benzamide [Example E40]” the figure was 4 nM; with “4-[1-[[5-tert-Butyl-2-(3-chlorophenyl)-2H-pyrazol-3-yl]-methyl-carbamoyl]-ethyl]-2-fluoro-N-[4-(trifluoromethyl)-phenyl]-benzamide [Example E49]”, 3 nM.
Same read-out and setting: then “4-[1-[[5-tert-Butyl-2-(3-chlorophenyl)-2H-pyrazol-3-yl]-methyl-carbamoyl]-ethyl]-2-fluoro-N-phenyl-benzamide [Example E29]”, with 5 nM.
Take “4-[1-[[5-tert-Butyl-2-(3-chlorophenyl)-2H-pyrazol-3-yl]-methyl-carbamoyl]-ethyl]-N-(4-chlorophenyl)-2-fluoro-benzamide [Example E35]”: the inhibition constant (Ki) came out at 2 nM.
For “4-[1-[[5-tert-Butyl-2-(3-chlorophenyl)-2H-pyrazol-3-yl]-methyl-carbamoyl]-ethyl]-N-(4-chlorophenyl)-benzamide [Example E34]”, the Ki came to 0.5 nM.
Consider “4-[1-[[5-tert-Butyl-2-(3-chlorophenyl)-2H-pyrazol-3-yl]-methyl-carbamoyl]-ethyl]-N-(4-fluorophenyl)-benzamide [Example E42]”, for which the Ki amounted to 1 nM.
The same measure, in the same setting: then “4-[1-[[5-tert-Butyl-2-(3-chlorophenyl)-2H-pyrazol-3-yl]-methyl-carbamoyl]-ethyl]-N-[4-(trifluoromethyl)-phenyl]-benzamide [Example E47]”, with 3 nM; and “4-[1-[[5-tert-Butyl-2-(3-chlorophenyl)-2H-pyrazol-3-yl]-methyl-carbamoyl]-ethyl]-N-phenyl-benzamide [Example E27]”, with 2 nM; and “4-[[[2-(3-Chlorophenyl)-5-(trifluoromethyl)-2H-pyrazol-3-yl]-methyl-carbamoyl]-methyl]-2-fluoro-N-(4-fluorophenyl)-benzamide [Example E38]”, with 3 nM.
On the same count and under the same terms, then “4-[[[2-(3-Chlorophenyl)-5-(trifluoromethyl)-2H-pyrazol-3-yl]-methyl-carbamoyl]-methyl]-N-(4-fluorophenyl)-benzamide [Example E36]”, with 14 nM; and “4-[[[2-(3-Chlorophenyl)-5-(trifluoromethyl)-2H-pyrazol-3-yl]-methyl-carbamoyl]-methyl]-N-[4-(trifluoromethyl)-phenyl]-benzamide [Example E51]”, with 49 nM.
As to “4-[[[2-(3-Chlorophenyl)-5-(trifluoromethyl)-2H-pyrazol-3-yl]-methyl-carbamoyl]-methyl]-N-phenyl-benzamide [Example E26]”, the Ki amounted to 25 nM.
As to “4-[[[5-tert-Butyl-2-(3-chlorophenyl)-2H-pyrazol-3-yl]-methyl-carbamoyl]-methyl]-2-fluoro-N-(4-fluorophenyl)-benzamide [Example E39]”, the Ki was 2 nM.
Regarding “4-[[[5-tert-Butyl-2-(3-chlorophenyl)-2H-pyrazol-3-yl]-methyl-carbamoyl]-methyl]-N-(4-chlorophenyl)-benzamide [Example E30]”, the Ki came out at 3 nM.
Still for that read-out and setting: then “4-[[[5-tert-Butyl-2-(3-chlorophenyl)-2H-pyrazol-3-yl]-methyl-carbamoyl]-methyl]-N-(4-fluorophenyl)-benzamide [Example E37]”, with 5 nM; and “4-[[[5-tert-Butyl-2-(3-chlorophenyl)-2H-pyrazol-3-yl]-methyl-carbamoyl]-methyl]-N-[4-(trifluoromethyl)-phenyl]-benzamide [Example E50]”, with 12 nM.
Turning to “4-[[[5-tert-Butyl-2-(3-chlorophenyl)-2H-pyrazol-3-yl]-methyl-carbamoyl]amino]-2-chloro-benzoic acid [Example E55]”, the “(f) Ki … inhibition (as a percentage)” value is on record as 28% @ 5 μM.
“4-[[[5-tert-Butyl-2-(3-chlorophenyl)-2H-pyrazol-3-yl]-methyl-carbamoyl]amino]-2-chloro-benzoic acid methyl ester [Example E60]”: the Ki worked out at 19 nM.
As to “4-[[[5-tert-Butyl-2-(3-chlorophenyl)-2H-pyrazol-3-yl]-methyl-carbamoyl]amino]-2-fluoro-N,N-dimethyl-benzamide [Example E12]”, the Ki worked out at 62 nM.
Same read-out and setting: then “4-[[[5-tert-Butyl-2-(3-chlorophenyl)-2H-pyrazol-3-yl]-methyl-carbamoyl]amino]-2-methoxy-benzamide [Example E7]”, with 66 nM.
Regarding `COc1c(F)cc(C(C)C(=O)NCc2cc(C(C)(C)C)nn2-c2ccc(F)c(Cl)c2)cc1F` (centres unmarked) [Example A5, N-[[5-tert-Butyl-2-(3-chloro-4-fluoro-phenyl)-2H-pyrazol-3-yl]-methyl]-2-(3,5-difluoro-4-methoxy-phenyl)-propionamide], the “(f) Ki (human being) [nM] Cap: result in words” value (shortened to “(f) Ki (human being) … in words”) is given as “AG”.
On the same count and under the same terms, with `CC(C)(C)c1cc(CNC(=O)Nc2cc(F)c(O)c(F)c2)n(-c2cccc(Cl)c2)n1` [Example A11, 1-[[5-tert-Butyl-2-(3-chlorophenyl)-2H-pyrazol-3-yl]-methyl]-3-(3,5-difluoro-4-hydroxy-phenyl)-urea] the entry was “AG”; with `COc1ccc(NC(=O)NCc2cc(C(C)(C)C)nn2-c2cccc(Cl)c2)cc1OC` [Example A13, 1-[[5-tert-Butyl-2-(3-chlorophenyl)-2H-pyrazol-3-yl]-methyl]-3-(3,4-dimethoxyphenyl)-urea], “AG”; with `COc1cc(NC(=O)NCc2cc(C(F)(F)F)nn2-c2cccc(Cl)c2)ccc1O` [Example A15, 1-[[2-(3-Chlorophenyl)-5-(trifluoromethyl)-2H-pyrazol-3-yl]-methyl]-3-(4-hydroxy-3-methoxy-phenyl)-urea], “AG”.
On the same count and under the same terms, then `COc1ccc(NC(=O)NCc2cc(C(F)(F)F)nn2-c2cccc(Cl)c2)cc1O` [Example A16, 1-[[2-(3-Chlorophenyl)-5-(trifluoromethyl)-2H-pyrazol-3-yl]-methyl]-3-(3-hydroxy-4-methoxy-phenyl)-urea], with “AG”; and `COCCOc1ccc(NC(=O)NCc2cc(C(C)(C)C)nn2-c2cccc(Cl)c2)cc1F` [Example A17, 1-[[5-tert-Butyl-2-(3-chlorophenyl)-2H-pyrazol-3-yl]-methyl]-3-[3-fluoro-4-(2-methoxy-ethoxy)-phenyl]-urea], with “AG”; and `CC(C)(C)c1cc(CNC(=O)Nc2ccc(OCC(O)CO)c(F)c2)n(-c2cccc(Cl)c2)n1` (centres unmarked) [Example A24, 1-[[5-tert-Butyl-2-(3-chlorophenyl)-2H-pyrazol-3-yl]-methyl]-3-[4-(2,3-dihydroxy-propoxy)-3-fluoro-phenyl]-urea], with “AG”.
`CC(C(=O)NCc1cc(C(C)(C)C)nn1-c1cccc(Cl)c1)c1ccc(CO)c(F)c1` (centres unmarked) [Example A32, N-[[5-tert-Butyl-2-(3-chlorophenyl)-2H-pyrazol-3-yl]-methyl]-2-[3-fluoro-4-(hydroxymethyl)-phenyl]-propionamide]: the “(f) Ki (human being) … in words” value was “AG”.
Take `CC(C(=O)NCc1cc(C(F)(F)F)nn1-c1cccc(Cl)c1)c1ccc(CO)c(Cl)c1` (centres unmarked) [Example A36, 2-[3-Chloro-4-(hydroxymethyl)-phenyl]-N-[[2-(3-chlorophenyl)-5-(trifluoromethyl)-2H-pyrazol-3-yl]-methyl]-propionamide]: the Ki is 0.3 nM.
Turning to `CC(C(=O)NCc1cc(C(C)(C)C)nn1-c1cccc(F)c1)c1ccc(CO)c(F)c1` (centres unmarked) [Example A37, N-[[5-tert-Butyl-2-(3-fluorophenyl)-2H-pyrazol-3-yl]-methyl]-2-[3-fluoro-4-(hydroxymethyl)-phenyl]-propionamide], the “(f) Ki (human being) … in words” value is listed as “AG”.

For orientation: Ki means a measure of affinity in units of concentration, obtained from inhibition or displacement.
